Each structure is given as a SMILES string.

The results in this text go back to ChEMBL document CHEMBL5126547, “Inhibition of the drug efflux activity of Ptch1 as a promising strategy to overcome chemotherapy resistance in cancer cells” (Eur J Med Chem, 2022).

Data set [1] has as its target T1, Protein patched homolog 1 (Homo sapiens) (UniProt Q13635).
T1 sequence (whole entry): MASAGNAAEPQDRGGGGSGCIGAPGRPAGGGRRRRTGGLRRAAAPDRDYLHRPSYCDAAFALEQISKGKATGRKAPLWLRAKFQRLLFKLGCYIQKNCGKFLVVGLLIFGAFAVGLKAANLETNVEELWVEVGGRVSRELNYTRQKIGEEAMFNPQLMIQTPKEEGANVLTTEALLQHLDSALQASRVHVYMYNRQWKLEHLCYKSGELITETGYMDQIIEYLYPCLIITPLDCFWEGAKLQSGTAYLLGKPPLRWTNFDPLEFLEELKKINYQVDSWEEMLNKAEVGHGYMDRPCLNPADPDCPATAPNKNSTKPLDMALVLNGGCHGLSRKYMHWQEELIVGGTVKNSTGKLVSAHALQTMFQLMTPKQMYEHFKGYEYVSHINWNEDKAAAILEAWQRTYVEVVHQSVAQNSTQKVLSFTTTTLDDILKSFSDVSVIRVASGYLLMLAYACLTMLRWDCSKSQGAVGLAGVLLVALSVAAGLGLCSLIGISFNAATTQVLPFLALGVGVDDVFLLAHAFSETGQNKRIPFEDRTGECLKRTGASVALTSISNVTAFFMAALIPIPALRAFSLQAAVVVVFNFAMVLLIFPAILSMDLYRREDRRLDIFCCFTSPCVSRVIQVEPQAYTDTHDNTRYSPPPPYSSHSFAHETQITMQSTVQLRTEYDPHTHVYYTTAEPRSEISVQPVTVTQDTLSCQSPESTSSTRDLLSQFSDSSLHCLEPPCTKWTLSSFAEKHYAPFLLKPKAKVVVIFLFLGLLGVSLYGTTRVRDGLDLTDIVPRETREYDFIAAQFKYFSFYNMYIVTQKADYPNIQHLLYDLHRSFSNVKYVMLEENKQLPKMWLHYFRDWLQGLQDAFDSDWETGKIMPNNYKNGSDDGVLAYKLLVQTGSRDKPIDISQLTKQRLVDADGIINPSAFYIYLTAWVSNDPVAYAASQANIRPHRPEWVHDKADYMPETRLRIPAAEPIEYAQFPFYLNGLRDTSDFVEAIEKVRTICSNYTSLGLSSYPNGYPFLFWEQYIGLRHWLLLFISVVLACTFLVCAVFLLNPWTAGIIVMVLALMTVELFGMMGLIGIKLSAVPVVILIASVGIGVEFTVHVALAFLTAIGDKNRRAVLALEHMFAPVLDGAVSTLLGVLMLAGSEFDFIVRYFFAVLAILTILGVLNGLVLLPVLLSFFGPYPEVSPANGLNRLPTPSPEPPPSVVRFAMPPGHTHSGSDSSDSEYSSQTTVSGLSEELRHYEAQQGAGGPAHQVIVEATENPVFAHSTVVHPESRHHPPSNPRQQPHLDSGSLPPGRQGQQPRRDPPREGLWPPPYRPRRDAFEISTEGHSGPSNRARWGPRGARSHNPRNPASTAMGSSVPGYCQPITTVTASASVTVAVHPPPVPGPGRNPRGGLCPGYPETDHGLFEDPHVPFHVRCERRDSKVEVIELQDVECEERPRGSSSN
Briefly: Inhibition of Ptch1 in human adrenocortical carcinoma cells assessed as fold increase doxorubicin cytotoxicity. Format: cell-based. To be noted: Adrenocortical carcinoma cell.

The nature of data set [2]: Metabolic stability in rat liver microsomes assessed as half life. In kind it is ADME, Microsome.
Data set [3] is described as follows: Lipophilicity, logD of compound. Format: physicochemical. The note with it: octanol/water.
The target in data set [4] is T1, Protein patched homolog 1 (Homo sapiens). Briefly: Inhibition of Ptch1 in human Melanoma cells assessed as fold increase doxorubicin cytotoxicity. The note with it: Melanoma cell. Format: cell-based.
Data set [5] shares this target. Put plainly: Inhibition of Ptch1 in human Melanoma cells assessed as fold increase cisplatin cytotoxicity. In kind it is cell-based. To be noted: Melanoma cell.
For data set [6] the target is unchanged. Put plainly: Inhibition of Ptch1 in human Melanoma cells assessed as fold increase vemurafenib cytotoxicity. Format: cell-based. The note with it: Melanoma cell.
The nature of data set [7]: In vivo inhibition of Ptch1 in vemurafenib-resistant human A-375 BRAF V600E cells xenografted in Nu/Nu NMRI mouse assessed as fold increase in vemurafenib anticancer activity at 5 mg/kg, ip administered 5 days a week measured on after 23 days of first treatment relative to control. Format: functional. To be noted: time 5 day. Background: Xenograft models place foreign cells or tissue in a host animal.

Data set [8] can be described thus: Inhibition of Ptch1 in vemurafenib-resistant human A-375 BRAF V600E cells assessed as fold increase in cisplatin cytotoxicity.
Data set [9] can be described thus: Inhibition of Ptch1 in vemurafenib-resistant human A-375 BRAF V600E cells assessed as fold increase in doxorubicin cytotoxicity.

Turning to `COc1ccc(CCN2CCC(Nc3nc4ccccc4n3Cc3ccc(F)cc3)CC2)cc1` [ASTEMIZOLE], the fold change (FC) in data set [1] was determined as 10. The half-life in [2] is more than 60 min. Also, the logD in data set [3] came to 2.9.

In the case of `CSc1ccc2c(c1)C(N1CCN(C)CC1)Cc1ccccc1S2` (stereo unspecified) [METITEPINE], the fold change (FC) in data set [1] stood at 6.6; in [4], 5.8; in data set [5] it was 3; in data set [6], 4; in data set [7] it was 10; in data set [8] it was 3.6. In data set [9], the “fold change (FC)” value is on record as 15. The half-life in data set [2] was 31 min. Also, the logD in data set [3] turned out to be 3.5.

As for `COc1cc(C)c(CC/C(C)=C/Cc2cc(O)ccc2O)c(C)c1C` [PANICEIN A HYDROQUINONE], the fold change (FC) in [1] amounted to 128; in [7], 10; in [9], 68. Moreover, in [2], the half-life came out at 1 min.

As a reminder, the half-life is the time needed for the level to fall by half in the phase considered. For orientation: logD means the decadic logarithm of the distribution of all forms, ionised or not, between an organic phase and buffer at a given pH. The low end stands for a more hydrophilic compound, the high end for a more lipophilic compound.
